Source: patent US20140235542A1, “MODULAR, BIOACTIVE PEPTIDES FOR BINDING NATIVE BONE AND IMPROVING BONE GRAFT OSTEOINDUCTIVITY” (WISCONSIN ALUMNI RESEARCH FOUNDATION, priority 2013, published 2014)
Square brackets hold non-standard residues; d marks the D form. Ends that are not written are not given here. Gla = N[C@@H](CC(C(=O)O)C(=O)O)C(=O)O

Tests used:
[1] = Binding of rhodamine-labeled peptide to cortical bone; design: species or system sheep
Description: The native bone used were harvested from sheep tibia and bovine sternum. Cortical (compact) bone slices were collected from sheep tibia with periosteum removed, and trabecular (cancellous, spongy) bone cores were drilled out from bovine sternum under sterile conditions.
The peptide binding to native bones was tested in three different experiments. In the first experiment, the cortical bone slices were incubated in modular peptide solution (0.5 mL, PBS) with concentrations of 50, 100, 200 and 300 μg/mL. The incubation was continued in a static condition for a period of 0.5, 1, 2 and 3 hours. For another experiment, the trabecular bone cores were placed in the chamber of bone bioreactor where the peptide solution prepared in DMEM (100 μg/mL, 6.5 mL) was continuously circulated through the chamber for a time period of 2, 4, 6, 8 and 10 hours. In the last experiment, mBMP was bound in a spatially controlled manner by dip-coating, spotting or writing with mBMP solution on native bone tissues. Following each experiment, the bones were rinsed with PBS to remove unbound peptide and their fluorescence images were captured using a Typhoon fluorescence scanner (GE healthcare) or a Nikon Eclipse Ti inverted microscope. To quantify the fluorescence intensity, the images were converted into 8-bit using ImageJ to present the intensity level of each pixel in the range of 0 to 255. The mean pixel intensity of a selected region of interest was considered to be proportional to the amount of peptide bound.
To examine mBMP binding to cortical bone without periosteum (ca. 4 mm×7 mm×1.5 mm) from the shaft of sheep tibia, the bone tissue was incubated in mBMP solution prepared in phosphate buffered saline (PBS). The binding of mBMP was concentration-dependent for each incubation time tested (FIGS. 12 and 13A). The quantity of mBMP binding was proportional to the solution concentration, which was clearly observed through all concentrations at 0.5 hour. However, this dependence was not apparent at higher concentrations at later time points. […] The insignificant dependence on the incubation time is likely attributed to the rapid binding of mBMP to native bone tissue.

[2] = Binding of 5(6)-FAM-conjugated modular peptides to HA-coated PLG films; conditions: 4 hr, 37° C.
Description: Poly (lactide-coglycolide) (PLG) films were prepared via a solvent casting process in which PLG (85:15) pellets were dissolved in chloroform (50 mg/ml), added to a PTFE dish, and dried for 2 days. The films were further dried at 50-55° C. for 4 hr to remove residual solvent and samples were cooled to room temperature. Square films (1 cm^2) were manually cut out of the resulting PLG film sheets. A “bone-like” HA-based material layer was grown on the PLG films using a direct deposition technique by biomimetic mineralization in modified simulated body fluid (mSBF).
To measure the binding efficiency of modular peptides to the HA-coated PLG films and to gain preliminary insight into the properties that influence modular peptide immobilization, 1 cm^2 HA-coated PLG films was first exposed to PBS solutions containing 500 μg (1 mg/ml) of 5(6) FAM-conjugated eBMP-2, eBGu1, eBGu3, eBGa1, or eBGa3 modular peptide solution (See Table 1 for definitions of these abbreviations). The films were incubated in peptide solutions with constant agitation for 4 hr at 37° C., and the amount of free peptide remaining was determined by measuring the fluorescence emission of the solution (excitation: 494 nm; emission 519 nm) using a Synergy HT Multi-Detection Microplate Reader (BioTek, Winooski, Vt.), and comparing this emission to standard samples with known concentrations of 5(6)-FAM. To further characterize surface immobilization of the peptide with the highest binding efficiency—the eBGa3 peptide-1 cm^2 HA-coated films were incubated in various concentrations (50-750 nM) of 5(6)-FAM-conjugated eBGa3 peptide for 4 hr with constant agitation at 37° C. The amount of peptide bound to HA-coated film was again determined by fluorescence analysis, as described above.

[3] = Release kinetics of modular peptides from HA-coated film; conditions: after 70 days
Description: To quantify release kinetics of 5(6) FAM-conjugated modular peptides from HA-coated film, the films were first incubated in solutions containing 250 μM (˜500 μg) of each peptide (eBGu1, eBGu3, eBGa1, or eBGa3) to allow for binding (as described above), then incubated in 500 μl of PBS buffer at 37° C. with constant agitation for 5 days (eBGu1 and eBGu3 peptides) or 10 weeks (eBGa1 and eBGa3 peptides), respectively. Whole buffer solutions were changed at indicated time points and the amount of peptide released from the HA-coated film was determined via fluorescence analysis and comparison with standards containing known amounts of 5(6)-FAM. The fluorescent images of fluorescently-labeled peptides bound to HA-coated films were obtained using an Olympus IX51 fluorescence microscope (Olympus, Center Valley, Pa.).

For “KIPKASSVPTELSAISTLYLAAAAγEPRRγEVAγEL (KIPKASSVPTELSAISTLYLAAAA[Gla]PRR[Gla]VA[Gla]L-NH2; N-terminus assumed; SMILES CC[C@H](C)[C@H](NC(=O)[C@H](C)NC(=O)[C@H](CO)NC(=O)[C@H](CC(C)C)NC(=O)[C@H](CCC(=O)O)NC(=O)[C@@H](NC(=O)[C@@H]1CCCN1C(=O)[C@@H](NC(=O)[C@H](CO)NC(=O)[C@H](CO)NC(=O)[C@H](C)NC(=O)[C@H](CCCCN)NC(=O)[C@@H]1CCCN1C(=O)[C@@H](NC(=O)[C@@H](N)CCCCN)[C@@H](C)CC)C(C)C)[C@@H](C)O)C(=O)N[C@@H](CO)C(=O)N[C@H](C(=O)N[C@@H](CC(C)C)C(=O)N[C@@H](Cc1ccc(O)cc1)C(=O)N[C@@H](CC(C)C)C(=O)N[C@@H](C)C(=O)N[C@@H](C)C(=O)N[C@@H](C)C(=O)N[C@@H](C)C(=O)N[C@@H](CC(C(=O)O)C(=O)O)C(=O)N1CCC[C@H]1C(=O)N[C@@H](CCCNC(=N)N)C(=O)N[C@@H](CCCNC(=N)N)C(=O)N[C@@H](CC(C(=O)O)C(=O)O)C(=O)N[C@H](C(=O)N[C@@H](C)C(=O)N[C@@H](CC(C(=O)O)C(=O)O)C(=O)N[C@@H](CC(C)C)C(N)=O)C(C)C)[C@@H](C)O) [eBGa3]”, the “dependence of binding to cortical bone on concentration and incubation time” value ([1]; 50-300 μg/mL in PBS, 0.5-3 hours) was “concentration-dependent”, the “binding to bone surface after dip-coating” value ([1]; bone piece dip-coated in peptide solution) was “significant amount of mBMP was found to bind” and the “fluorescence intensity of treated bone compared with rhodamine-treated group” value ([1]; rhodamine-labeled peptide, cortical bone) was “higher fluorescence intensity”. The “binding efficiency on the HA-coated PLG films” value ([2]; 500 μg (1 mg/ml) 5(6)-FAM-conjugated peptide in PBS, constant agitation) was 55.9±2.2%, the “peptide amount at which bound amount reached saturation” value ([2]; HA-coated film) was ~300 µg and the “peptide concentration at which bound amount reached saturation” value ([2]; HA-coated film) was “approximately 150 μM”. The “initially bound peptide remaining bound” value [3] was ~85% and the “peptide released from HA-coated films” value ([3]; PBS, 37° C.) was 15.7±0.6%.
